The subject of assay [1] is L88. The assay is described as follows: in vitro inhibition of growth of human lung cancer cell line L88 (Table 1). Type of assay: cell-based. The text has this: (§1) Tables 1 to 4 at the end of the present description show in vitro test results obtained in various sets of experiments for the cytotoxic activity of several of the benzazole compounds concerned, including also for reference results for the compound CJM 126 and comparative results for compound DF129, when tested against a range of tumor cell lines which includes ovarian, lung and certain colon and renal cancer cells from the National Cancer Institute (USA) collection. As usual the results are expressed in terms of IS50 values (concentration or dosage required to reduce cell growth or proliferation by 50%) calculated from dose-effect curves plotted for cultures of the cells in question.
(§2) In carrying out the in vitro studies, the cytotoxicity assays may be carried out by a method corresponding substantially to the following example:
(§3) Cells were maintained in a continuous logarithmic culture in Dublecco's medium supplemented with 10% fetal calf serum and penicillin (100 IU/ml) and streptomycin ([…]). The cells were mildly trypsinized for passage and for use in assays. On day zero, 100 μl of trypsinized tumor cells (1×10^4 /ml) were plated in the wells of 96-well flat-bottom microtiter plates. The plates were incubated for 2 days at 37° C. and 5% CO2 in air to allow the cells to adhere and resume exponential growth prior to the addition of drugs.
(§4) On day two 50 μl of the highest drug concentration was added to the wells of column 12 and from there serially diluted 3-fold to column 1 by serial transfer of 50 μl using an 8-channel micropipette. The final volume of column 1 was adjusted to 100 μl. No additions were made to the wells of rows A and B, which served as controls. […]
(§5) On day 7 the test was terminated by the addition of 100 μl saline containing 0.002% w/v propidium iodide (Sigma), 0.3% drawing ink (Staedtler "Marsmatic 745"--Trade Mark) and 0.5% Triton X-100. The plates were kept at 4° C. overnight before reading on an inverted microscope equipped with an automated scanning stage. Fluorescence intensity was measured in arbitrary units by a photomultiplier. […]

In assay [2] the test system is ovarian cancer cell lines. The assay is described as follows: in vitro inhibition of ovarian cancer cell lines. Type of assay: cell-based, human. The conditions noted are these: words, Table 2.
From the text: as §1
In carrying out the in vitro studies, the cytotoxicity assays may be carried out by a method corresponding substantially to the following example: […]
as §5

The subject of assay [3] is H69/P. The assay is described as follows: in vitro inhibition of growth of human lung cancer cell line H69/P (Table 1). Type of assay: cell-based.
From the text: as §1, §2, §3
(§6) On day two 50 μl of the highest drug concentration was added to the wells of column 12 and from there serially diluted 3-fold to column 1 by serial transfer of 50 μl using an 8-channel micropipette. The final volume of column 1 was adjusted to 100 μl. No additions were made to the wells of rows A and B, which served as controls. The plates were further incubated for 5 days at 37° C. and 5% CO2 in air. Each compound was tested in duplicate.
(§7) On day 7 the test was terminated by the addition of 100 μl saline containing 0.002% w/v propidium iodide (Sigma), 0.3% drawing ink (Staedtler "Marsmatic 745"--Trade Mark) and 0.5% Triton X-100. The plates were kept at 4° C. overnight before reading on an inverted microscope equipped with an automated scanning stage. Fluorescence intensity was measured in arbitrary units by a photomultiplier. An HP-87 computer controlled the movement of the stage and also collected and processed the data from the multiplier.
(§8) For each compound tested a dose-response curve was obtained and the IC50 value (the drug concentration at 50% inhibition of cell growth) was calculated.

The subject of assay [4] is human breast cancer cell lines. Put plainly: in vitro inhibition of human breast cancer cell lines. Type of assay: cell-based. The conditions noted are these: words, Table 4.
From the text: as §1, §2, §3, §6, §7, §8

Assay [5] deals with CH1. Put plainly: in vitro activity against human ovarian cell line CH1 (Table 2). Type of assay: cell-based. As to conditions: Homo sapiens.
From the text: (§9) As usual the results are expressed in terms of IS50 values (concentration or dosage required to reduce cell growth or proliferation by 50%) calculated from dose-effect curves plotted for cultures of the cells in question.
as §2, §3, §6
(§10) The plates were kept at 4° C. overnight before reading on an inverted microscope equipped with an automated scanning stage. Fluorescence intensity was measured in arbitrary units by a photomultiplier. An HP-87 computer controlled the movement of the stage and also collected and processed the data from the multiplier.

The subject of assay [6] is MCF-7B. The assay is described as follows: in vitro inhibitory activity against human breast tumour cell line MCF-7B (Table 4). Type of assay: cell-based. The conditions noted are these: initial seeding density 2.5 × 10^2 cells/well.
From the text: as §1, §2, §3, §4, §5

Assay [7] deals with A2780. The assay is described as follows: in vitro activity against human ovarian cell line A2780 (Table 2). Type of assay: cell-based. The conditions noted are these: Homo sapiens; A2780 (parental line).
From the text: as §9, §2, §3, §6, §10

In assay [8] the test system is L23/R. Put plainly: in vitro inhibition of growth of human lung cancer cell line L23/R (Table 1). Type of assay: cell-based.
From the text: as §1, §2, §3, §6, §7, §8

Assay [9] deals with MOR/R. The assay is described as follows: in vitro inhibition of growth of human lung cancer cell line MOR/R (Table 1). Type of assay: cell-based. The conditions noted are these: MOR/R (multidrug resistant line).
From the text: as §1, §2, §3, §6, §7, §8

Assay [10] deals with MOR/CPR. The assay is described as follows: in vitro inhibition of growth of human lung cancer cell line MOR/CPR (Table 1). Type of assay: cell-based. The conditions noted are these: Homo sapiens; MOR/CPR (cisplatin resistant line).
From the text: as §1, §2, §3, §6, §7, §8

Assay [11] concerns MDA 468. Put plainly: in vitro inhibitory activity against human breast tumour cell line MDA 468 (Table 4). Type of assay: cell-based. The conditions noted are these: initial seeding density 2.5 × 10^2 cells/well.
From the text: as §1, §2, §3, §6, §7, §8
(§11) *Initial seeding density 2.5 × 10^2 cells/well

Assay [12] relates to LX4. Put plainly: in vitro inhibition of growth of human lung cancer cell line LX4 (Table 1). Type of assay: cell-based.
From the text: as §1, §2, §3, §6, §7, §8

Assay [13] concerns MCF-7wt. The assay is described as follows: in vitro inhibitory activity against human breast tumour cell line MCF-7wt (Table 4). As to conditions: initial seeding density 2.5 × 10^2 cells/well. Type of assay: cell-based.
From the text: as §1, §2, §3, §6, §7, §8, §11

Assay [14] deals with CH1-cisR. The assay is described as follows: in vitro activity against human ovarian cell line CH1-cisR (Table 2). Type of assay: cell-based. As to conditions: Homo sapiens, CH1cisR.
From the text: as §9, §2, §3, §6, §10

Assay [15] has as its system L23/P. The assay is described as follows: in vitro inhibition of growth of human lung cancer cell line L23/P (Table 1). Type of assay: cell-based.
From the text: as §1, §2, §3, §6, §7, §8

Assay [16] relates to MOR/P. Put plainly: in vitro inhibition of growth of human lung cancer cell line MOR/P (Table 1). Type of assay: cell-based. The conditions noted are these: MOR/P (parental line).
From the text: as §1, §2, §3, §6, §7, §8

Assay [17] concerns A2780-cisR. Put plainly: in vitro activity against human ovarian cell line A2780-cisR (Table 2). Type of assay: cell-based. As to conditions: Homo sapiens, A2780cisR; A2780-cisR (platinum-resistant).
From the text: as §9, §2, §3, §6, §10

For assay [18], the system named is ER-tumors MT-1 and MT-3. As to conditions: words, background statement; cited from earlier work.

pIC50: −log10 of the molar value.

With `O=C(CCl)Nc1ccc(-c2nc3ccccc3s2)cc1` [DF180, 2-(4'-Chloroacetamidophenyl)benzothiazole], the pIC50 (commonly −log10 of the IC50, conventionally taken in molar units) in assay [1] is 5.22; in assay [3], 5.52; in assay [5], 5.80; in assay [6], 6.30; in assay [7] it was 5.90; in assay [8] it was 5.82. Further, the pIC50 is 5.22 in [9]; 5.00 in assay [10]; 7.40 in [11]; 5.52 in [12]; 8.40 in assay [13]; 5.59 in assay [14]. In addition, the pIC50 was 5.82 in assay [15], 5.22 in assay [16] and 5.80 in [17]. Also, in assay [2], the “activity against two cisplatin resistant cell lines compared with the parental line” value was “substantially equiactive”. Also, the “activity in respect of the ovarian cancer cell lines” value in [2] is reported as “most active by far”. Moreover, the “inhibitory activity in respect of breast cancer cell lines” value in [4] is given as “useful degree of inhibitory activity”.

In the case of `Nc1ccc(-c2nc3ccccc3s2)cc1Br` [DF209, 2-(4'-amino-3'-bromophenyl)benzothiazole], the “potency against breast cancer cells relative to CJM 126” value in assay [4] is reported as “more potent than even the compound CJM 126”. In addition, the negative logarithm of the IC50 (pIC50) in assay [6] was 9.00; in [11] it was more than 9.00; in [13], more than 9.00.

As for `CCCCCCCCCCCCCCCCOP(=O)([O-])OCC[N+](C)(C)C` [hexadecylphosphocoline], the “responsiveness of MT-1 and MT-3 tumors to drug” value (“responsiveness” for short) in assay [18] is “exquisitively sensitive”.

As for `CN(Cc1cnc2nc(N)nc(N)c2n1)c1ccc(C(=O)N[C@@H](CCC(=O)O)C(=O)O)cc1` [methotrexate], the “responsiveness” value in assay [18] was “completely unresponsive”.

On to `CC[C@]1(O)C[C@H]2CN(CCc3c([nH]c4ccccc34)[C@@](C(=O)OC)(c3cc4c(cc3OC)N(C=O)[C@H]3[C@@](O)(C(=O)OC)[C@H](OC(C)=O)[C@]5(CC)C=CCN6CC[C@]43[C@@H]65)C2)C1` [vincristine], for which the “responsiveness” value in assay [18] is “completely unresponsive”.
